The test system of one series is HBEGF locus. It is filed as cell-based, human. Conditions: dCasX491-KRAB lentiviral library, spacer 34.28, HEK293T, 2 ng/ml diphtheria toxin 48 hours.
Another series has as its system B2M promoter. The series is described as follows: B2M repression with gRNAs tiled across the B2M promoter, dXR1 vs ELXR #1 (Example 10). The class given is cell-based, human. Conditions: HEK293T, six days after lipofection, unlike the effects seen with dXR1. The method, then: ELXR #1 containing the ZIM3-KRAB domain, as described in Example 6, and dXR1, as described in Example 1, were assessed in this experiment. Various gRNAs with scaffold 174 containing a B2M-targeting spacer were used in this experiment.
The next day, cells were selected with puromycin for four additional days. […] HEK293T cells transfected with either ELXR #1 or dXR1 with a non-targeting gRNA was included as an experimental control. FIG. 21A is a schematic illustrating the tiling of the various B2M-targeting gRNAs (spacers listed in Table 31) within a ˜1 KB window of the B2M promoter.

“Zim3: ZIM3 KRAB domain, SEQ ID NO: 337 [reference compound]”: the “log2 (fold change) in abundance of the KRAB domain before and after selection” value in the series on HBEGF locus is given as 1.7787.

Take “spacer 7.165: B2M-targeting, ELXR-specific spacer, UCCCUAUGUCCUUGCUGUUU, SEQ ID NO: 59667 (listed as RNA, chemistry not fully specified)”: the “B2M repression (HLA-negative cells) mediated by ELXR #1 with the spacer” value in the series on B2M promoter is “meaningful B2M repression”.
